Measurements published in patent US20060172993A1 (priority 2002, published 2006).

Columns and labels:
[1] = test system: Patients diagnosed with Alzheimer's Disease; experiment: Neuropsychiatric Inventory (NPI); type: in vivo, human
Text: Subjects in the Placebo group received 21 weeks (5 months) of placebo medication.
Neuropsychiatric behavior was monitored by a test known as The Neuropsychiatric Inventory (NPI) (Cummings, J. L. et al., Neurology, 44: 2308-2314, 1994). The NPI covers 10 domains of behaviors reported in patients with Alzheimer's Disease: delusions, hallucinations, agitation/aggression, dysphoria, anxiety, euphoria, apathy, disinhibition, irritability/lability and aberrant motor behavior. For each domain abnormal behavior can be absent (score 0) or present. If present, the frequency and severity of abnormal behavior is rated based on answers to a set of subquestions regarding behaviors relevant to that domain. Severity was rated 1 to 3 as mild, moderate or marked. Frequency was rated 1 to 4 as occasionally, often, frequently and very frequently. The product of frequency and severity (maximum score=12) was calculated for each domain. A total of NPI was calculated as the sum of the frequency and severity products (maximum score=120). The NPI was performed at visits 2, 3, 4 and 5 (baseline, week 4, week 13, and month 5 or upon early discontinuation of trial medication).

humans = conditions: cited from earlier work

COc1ccc2c3c1O[C@H]1C[C@@H](O)C=C[C@@]31CCN(C)C2 [GAL, galantamine]
Change in Total NPI score from baseline at Month 5, Mean ([1]; 8 mg/day, LOCF): 2.3 | Change in Total NPI score from baseline at Month 5, Mean ([1]; 8 mg/day, observed case): 2.3 | Change in Total NPI score from baseline at Month 5, Mean ([1]; 16 mg/day, LOCF): −0.1 | Change in Total NPI score from baseline at Month 5, Mean ([1]; 16 mg/day, observed case): −0.1 | Change in Total NPI score from baseline at Month 5, Mean ([1]; 24 mg/day, LOCF): −0.0 | Change in Total NPI score from baseline at Month 5, Mean ([1]; 24 mg/day, observed case): −0.1 | Passing the blood-brain barrier (humans; humans): capable of passing the blood-brain barrier in humans | Side effects (humans; therapeutically effective dosages): no severe side effects
